# In patent publication US20130172324A1, “METHOD FOR TREATING CARDIOVASCULAR DISEASES USING RHO KINASE INHIBITOR COMPOUNDS” (priority 2008, published 2013):
# Like-named read-outs stand apart in the source and are kept apart here.
# Columns and labels:
# rat trachea rings = test: Tracheal relaxation assay (carbachol precontracted rings); conditions: for Percentage of carbachol-induced contraction at 1 μM compound, Avg % / Percentage of carbachol-induced contraction at 10 μM compound, Avg %: 1 μM carbachol; for IC50: read-out: IC50 Avg; for Trachael Ring Contraction, %: average percentage of carbachol-induced rat tracheal ring contraction at 1 μM of test compound;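 on all read-outs here: isometric tension of rat tracheal rings in Krebs buffer with 1 µM indomethacin, compounds added cumulatively at 30 min intervals, basal tension subtracted, fit to Hill equation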
# Procedure: The effects of compounds to induce relaxation of pre-contracted rat trachealis were determined. […] Trachea were excised, cleaned of connective tissue and cut into cylindrical segments of 2-3 mm length. Two stainless steel wires were guided through the lumen of the tracheal ring. One wire was fixed in the tissue bath and the other was connected to a force transducer via surgical silk. […] Indomethacin (1 μM), a cyclooxygenase inhibitor, was added to the Krebs buffer and was present throughout the experiments. Contractile tensions were measured using an isometric force transducer (Grass Instruments) and signals were analyzed using specialized software (Chart v5.5, ADInstruments). The preparations were allowed to equilibrate at a resting tension of 0.3 to 0.5 gm prior to two challenges with 60 mM KCl to assess tissue viability. After washing, tissues were treated with 1 μM carbachol for 10 to 15 minutes to induce a contractile response. Test Compounds were added cumulatively to the bath every 30 minutes and reductions in tension were recorded. Basal tension was subtracted from all values and data were reported as a percentage of the maximal carbachol-induced contraction. Data were fit to the Hill equation using GraphPad Prism v5 software.
# [1] = tested on: ova-sensitized, ova-challenged mice; test: Bronchodilator assay in ovalbumin-sensitized mice (Penh, methacholine); assay type: in vivo, mouse; conditions: for log10AUC (penh): bronchodilator dosing paradigm
# Procedure: Male BALB/c mice were ordered from Charles River Laboratories (Raleigh, N.C.). The animals were approximately 19 to 21 grams at time of receipt. Upon arrival, the animals were randomized into groups of five males per cage and assigned to a dosing group. Animals were quarantined for 7 days under test conditions. They were observed daily for general health status and ability to adapt to the water bottles.
# Animals were sensitized on day 0 and 14 of study by an intraperitoneal injection with 20 μg of ovalbumin (ova) and 2.0 mg aluminum hydroxide (alum) which initiates the development of a specific T-helper (Th) cells type 2 resulting in asthmatic animals. One group of animals received an injection of saline to use as non-asthmatic control animals. All animals were challenged with aerosolized 1% ova once daily for 25 minutes on days 28, 29, and 30 (Zosky, et al. Respiratory Research. 2004; 5:15). Aerosol challenge consists of using an Aerogen Aeroneb nebulizer and controller with a particle size of 4-6 μm mass median aerodynamic diameter (MMAD) with a distribution of 400 μl per minute. This aerosol challenge is necessary to target the Th2-driven allergic inflammation in the lower airways.
# The test compounds and the control vehicle were administered to animals on the day of airway hyperreactivity evaluation 30 minutes to 1 hour before the evaluation to determine the bronchodilator effects of the compounds according to the bronchodilator dosing paradigm (FIG. 8). Compounds were administered p.o. (orally), i.p. (intraperitoneally) at 15 μMol/kg unless otherwise noted (Table 6). Alternatively, compounds were administered i.t. (intratracheally) at varying doses as shown (FIG. 9). On day 32 of the experiment, airway hyperreactivity was evaluated by placing conscious, unrestrained animals in a whole body plethysmometer (Buxco Wilmington, N.C.) and exposing them to escalating doses of nebulized methacholine, a known bronchial constrictor which acts through the muscarinic receptors of the lungs, (doses: 0.325-50 mg/ml). Exposure to the methacholine doses consisted of a 3 minute period during which a nebulizer was aerosolizing the methacholine and an additional 3 minute period following the cessation of nebulization. Over this 6 minute period, the plethysmometer monitors and generates numerical values for all parameters of the breath pattern. Enhanced pause (Penh), a unitless index of airway hyperreactivity, is derived from the expiratory side of the respiratory waveform measured via the plethysmograph and is used as an indirect measure of airway resistance and hyperreactivity. […] Following the methacholine dose response, all animals were anesthetized, bled and euthanized.
# Within each experiment, a mouse was given a single compound and exposed to increasing doses of methacholine [0 (baseline), 0.375, 0.75, 1.5, 3, 6, 12, 25, 50 mg/ml]. The Penh value at each of the dose levels of methacholine represents the 6-minute average response. Change from baseline (CFB) in Penh was calculated at each methacholine dose and the area under the curve (AUC) for these CFB values was calculated using the trapezoidal rule. This same approach was applied for each mouse across multiple experiments.
# For statistical analyses, a linear mixed-effects model where the response was the log 10 transformed value of AUC described above was used. Data from equal experimental conditions across experiments performed on different days were pooled for statistical analysis and data reporting. The various compounds were compared adjusting for the log 10-transformed baseline value of Penh and the chamber (1 of 10) of the plethysmometer each mouse was contained in during an experiment. A random intercept for each experiment was assumed to account for possible similarities of the results obtained from a given experiment (i.e., as a “blocking effect”). […] Computations were performed using PROC MIXED (SAS Version 9.1). […]
# [2] = Rat oral pharmacokinetics (plasma); assay type: in vivo
# Procedure: Plasma (EDTA K2 anticoagulant) was collected from male, cannulated, CD Sprague Dawley rats to determine the pharmacokinetics of formulations containing compound inhibitors of Rho kinase. Each animal was dosed orally with a 4 ml/kg solution or suspension of each test compound in 10 mM acetate buffered saline, pH 4.5 at a final concentration range of 20-30 μmol/kg. Blood was collected at 0.25, 0.5, 1, 2, 4, 6, 8, and 24 hours. Plasma samples were assayed for the concentration of the test compound using an on-line, solid phase extraction LC/MS/MS analysis system.
# Samples were analyzed on a QSTAR Elite, hybrid quadrupole time-of-flight mass spectrometer (Applied Biosystems, Framingham, Mass.) coupled with a Symbiosis Pharma integrated, on-line SPE-HPLC system (Spark Holland Inc., Plainsboro, N.J.). Analyst QS 2.0 software was used for instrument control, data acquisition and processing. […] Mobile Phase A consisted of 0.1% ammonium hydroxide in water and Mobile Phase B consisted of 0.1% formic acid in acetonitrile. Pharmacokinetic analyses were performed using WinNonlin software version 5.2 (Pharsight Corporation, Mountain View, Calif.).
# As determined from the plasma concentration versus time curves, the time to peak and peak exposure are represented by the values Tmax and Cmax, respectively. The AUC values (nM*hr) shown were calculated as the areas under the plasma concentration versus time curves from time zero through the time of the last observable value and represent the total exposure of the compound over the course of the study. Half-life values or the amount of time required for the plasma levels of the compound to decline to half the initial value are represented as t1/2.
# [3] = tested on: ova-sensitized, ova-challenged mice; test: Prevention of airway hyperreactivity development, anti-inflammatory dosing paradigm (Penh); assay type: in vivo, mouse; conditions: for airway hyperreactivity: intratracheal once a day, days 27 to 30 (1.091) or 27 to 31
# ERK2 = biological target: T1, ERK2 (Homo sapiens, UniProt P28482); test: Kinase panel screen (KinaseProfiler), ERK2; assay type: biochemical; conditions: 10 μM ATP
# T1 construct: purchased Upstate, Millipore Bioscience Division (KinaseProfiler service)
# Procedure: (§1) Compounds of Formulae I and II were examined for activity against a selected panel of kinases using the KinaseProfiler™ enzyme profiling services (Upstate, Millipore Bioscience Division). Percent kinase activity at 10 μM and 1 μM test compound and 10 μM ATP was determined against 40 wild-type recombinant human kinases according to Upstate's standard protocol: ASK1, BTK, CSK, c-RAF, GCK, GSK3β, IKKα, IKKβ, IRAK1, IRAK4, JNK1α1, JNK2α2, JNK3, ERK1, ERK2, MAPKAP-K2, MAPKAP-K3, MEK1, MKK4, MKK6, MKK7β, Mnk2, MSK1, PAK3, PDK1, PRAK, ROCK1, Rsk2, SAPK2a, SAPK2b, SAPK3, SAPK4, SRPK1, SRPK2, Syk, TAK1, TBK1, PI3-Kβ, PI3-Kγ, PI3-Kδ.
# ERK1 = biological target: T2, ERK1 (Homo sapiens, UniProt P27361); test: Kinase panel screen (KinaseProfiler), ERK1; assay type: biochemical; conditions: 10 μM ATP
# T2 construct: purchased Upstate, Millipore Bioscience Division (KinaseProfiler service)
# Procedure: as §1
# [4] = tested on: ova-sensitized, ova-challenged mice; test: In vivo anti-inflammatory assay in ovalbumin-sensitized mice (BALF eosinophils and cytokines); design: species or system mouse; conditions: dosed orally to day 31, anti-inflammatory dosing paradigm; FIG. 11
# Source text: A mouse model of asthma via ovalbumin sensitization was created as described in Example 23. The anti-inflammatory dosing paradigm (FIG. 10) was utilized to evaluate the anti-inflammatory effects of experimental compounds. The anti-inflammatory dosing paradigm consists of dosing the animals once a day starting on day 27 and finishing on either day 30 or 31 (1 hr prior to the aerosolized ovalbumin challenges on days 28 to 30) but not on day 32 when hyperreactivity evaluation occurs.
# Bronchoalveolar lavage fluid (BALF) was collected by infusing 3.0 ml of saline with 10% fetal calf serum into the lungs via the trachea and then withdrawing the fluid. The total amount of cells/ml of BALF fluid was determined via manual cell count on hemocytometer. The BALF was centrifuged, supernatant removed and analyzed for cytokine concentrations as described below, and cell pellet reconstituted in 500 μL of fluid. Cytospin slides were prepared from the cell pellet using 100 μL of fluid and spinning samples for 5 minutes at 5000 rpms in a cytospin centrifuge. Following Hema3 stain, relative percentages of individual leukocytes were determined on a 200 cell count for each sample. The final concentration of individual leukocyte cell types per ml of BALF was determined by multiplication of the relative percentage of individual leukocytes with the total amount of cells/ml of BALF fluid.
# The concentrations of cytokines in the BALF samples were determined using commercially available Bio-plex kits (Bio-Rad) for the detection of mouse IL-5, IL-13, and Eotaxin. The analysis of cytokine levels was measured using the Bio-Plex 200 (Bio-Rad) system according to the manufacturer's instructions.
# [5] = tested on: cytokine secretion from LPS-stimulated human monocytes; test: Human monocyte cytokine secretion assay (LPS); assay type: cell-based
# Procedure: Peripheral blood from healthy human volunteers was collected and the monocytes isolated via Ficoll-paque density centrifugation. […] The cells were allowed to pre-incubate with test compound at the indicated concentration for 30 minutes (37° C., 5% CO2, humidified air); after which the supernatant was removed and media containing compound and 1 ng/mL LPS was added. Cells were allowed to incubate with compounds and LPS for 4 hours at 37° C. after which the supernatant was removed and stored at −80° C. Cytokine concentrations in the supernatant were determined using commercially available Bio-Rad Bio-plex™ kits according the manufacturer's instructions.
# [6] = rat, oral, 20-30 μmol/kg, plasma, mean of n = 3
# T2 sequence (P27361 whole entry): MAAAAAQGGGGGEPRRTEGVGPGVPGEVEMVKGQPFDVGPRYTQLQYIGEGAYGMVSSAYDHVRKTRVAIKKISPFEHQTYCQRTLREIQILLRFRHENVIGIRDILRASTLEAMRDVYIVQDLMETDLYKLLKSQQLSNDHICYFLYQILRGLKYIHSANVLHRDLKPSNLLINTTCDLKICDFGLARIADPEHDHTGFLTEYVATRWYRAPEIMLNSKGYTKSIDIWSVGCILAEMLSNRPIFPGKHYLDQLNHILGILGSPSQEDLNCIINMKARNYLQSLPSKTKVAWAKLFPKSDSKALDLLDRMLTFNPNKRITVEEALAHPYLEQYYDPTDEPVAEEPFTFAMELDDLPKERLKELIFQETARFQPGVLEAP
# T1 sequence (P28482 whole entry): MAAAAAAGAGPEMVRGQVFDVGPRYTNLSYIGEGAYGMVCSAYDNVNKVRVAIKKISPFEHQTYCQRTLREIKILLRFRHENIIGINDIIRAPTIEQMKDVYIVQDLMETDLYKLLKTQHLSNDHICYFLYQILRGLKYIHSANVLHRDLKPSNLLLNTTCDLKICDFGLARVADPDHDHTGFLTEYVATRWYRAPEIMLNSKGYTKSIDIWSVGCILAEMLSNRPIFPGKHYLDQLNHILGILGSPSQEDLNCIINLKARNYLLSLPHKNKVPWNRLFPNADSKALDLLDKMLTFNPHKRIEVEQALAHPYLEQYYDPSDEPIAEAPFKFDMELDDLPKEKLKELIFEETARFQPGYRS
structure (smiles),measurement,setting,value
"CCc1ccc(CN2CCC[C@@H](Nc3ccc4[nH]ncc4c3)C2)cc1 [Compound 1.136, (R)-N-(1-(4-ethylbenzyl)piperidin-3-yl)-1H-indazol-5-amine]","Percentage of carbachol-induced contraction at 1 μM compound, Avg %",rat trachea rings,45.0%
same,"Percentage of carbachol-induced contraction at 10 μM compound, Avg %",rat trachea rings,19.7%
same,IC50,rat trachea rings; Rattus norvegicus,861 nM
same,"Trachael Ring Contraction, %",rat trachea rings,45%
same,log10AUC (penh),[1]; 15 μmol/kg intraperitoneal,2.1379
same,log10AUC (penh),[1]; 15 μmol/kg oral,2.2490
same,reduction in airway hyperresponsiveness,"[1]; i.p. route, compared to oral dosing",enhanced reduction
same,reduction in airway hyperresponsiveness,[1]; oral doses,did not yield a significant reduction
same,oral bioavailability,[2]; oral dosing,poor oral bioavailability
same,AUC (0-last),[2]; [6],BLQ
same,Cmax,[2]; [6],BLQ
same,Tmax,[2]; [6],BLQ
same,Vz_F,[2]; [6],BLQ
same,t½,[2]; [6],BLQ
"Cc1ccc(CN2CCC[C@@H](Nc3ccc4[nH]ncc4c3)C2)cc1OCCO [Compound 1.161, (R)-2-(5-((3-(1H-indazol-5-ylamino)piperidin-1-yl)methyl)-2-methylphenoxy)ethanol]","Percentage of carbachol-induced contraction at 1 μM compound, Avg %",rat trachea rings,40.3%
same,"Trachael Ring Contraction, %",rat trachea rings,40%
same,log10AUC (penh),[1]; 15 μmol/kg intraperitoneal,1.9042
same,airway hyperreactivity,[3],prevention of airway hyperreactivity
same,"Percent inhibition, ERK2",ERK2; 1 μM test compound,104%
same,"Percent inhibition, ERK2",ERK2; 10 μM test compound,92%
"OCCOc1cccc(CN2CCC[C@@H](Nc3ccc4[nH]ncc4c3)C2)c1 [Compound 1.092, (R)-2-(3-((3-(1H-indazol-5-ylamino)piperidin-1-yl)methyl)phenoxy)ethanol]","Percentage of carbachol-induced contraction at 1 μM compound, Avg %",rat trachea rings,67.7%
same,"Percentage of carbachol-induced contraction at 10 μM compound, Avg %",rat trachea rings,−2.9%
same,IC50,rat trachea rings; Rattus norvegicus,453 nM
same,Vz_F,[2]; [6],19.0 L/kg
"NC(=O)Cn1ccc2cc(CN3CCC[C@@H](Nc4ccc5[nH]ncc5c4)C3)ccc21 [Compound 1.162, (R)-2-(5-((3-(1H-indazol-5-ylamino)piperidin-1-yl)methyl)-1H-indol-1-yl)acetamide]","Percent inhibition, ERK1",ERK1; 1 μM test compound,84%
same,"Percent inhibition, ERK1",ERK1; 10 μM test compound,50%
same,"Percentage of carbachol-induced contraction at 1 μM compound, Avg %",rat trachea rings,34.4%
same,"Trachael Ring Contraction, %",rat trachea rings,34%
same,log10AUC (penh),[1]; 15 μmol/kg intraperitoneal,1.7001
same,"Percent inhibition, ERK2",ERK2; 1 μM test compound,89%
same,"Percent inhibition, ERK2",ERK2; 10 μM test compound,60%
"c1cc2cc(CN3CCC[C@@H](Nc4ccc5[nH]ncc5c4)C3)ccc2o1 [Compound 1.131, (R)-N-(1-(benzofuran-5-ylmethyl)piperidin-3-yl)-1H-indazol-5-amine]","Percentage of carbachol-induced contraction at 1 μM compound, Avg %",rat trachea rings,37.4%
same,"Percentage of carbachol-induced contraction at 10 μM compound, Avg %",rat trachea rings,14.2%
same,IC50,rat trachea rings; Rattus norvegicus,243 nM
same,"Trachael Ring Contraction, %",rat trachea rings,37%
same,log10AUC (penh),[1]; 15 μmol/kg oral,2.0283
same,reduction in airway hyperresponsiveness,[1]; oral doses,statistically significant reduction
same,plasma and lung tissue concentrations after oral dosing,"[2]; oral dosing, refers to Table 13 and Table 15",high plasma and lung tissue concentrations
same,eosinophils per ml of BALF (airway eosinophil infiltration),[4],reduced
same,airway hyperreactivity to methacholine,"[3]; oral 15 μMol/kg once a day during days 27 to 31, methacholine on Day 32",prevention of airway hyperreactivity
"Cc1ccc(CN2CC[C@@H](Nc3cccc4cnccc34)C2)cc1OCCO [Compound 2.064, (R)-2-(5-((3-(isoquinolin-5-ylamino)pyrrolidin-1-yl)methyl)-2-methylphenoxy)ethanol]",IL-1β %,"[5]; 4 h, 10 µM",14.3%
same,"IL-6, %","[5]; 4 h, 10 µM",45.7%
same,TNF-α %,"[5]; 4 h, 10 µM",66.2%
same,IL-1β %,[5]; average percent of stimulated IL-1β secretion from human monocytes at 10 μM of test compound,14.3%
same,"IL-6, %",[5]; average percent of stimulated IL-6 secretion from human monocytes at 10 μM of test compound,45.7%
same,TNF-α %,[5]; average percent of stimulated TNF-α secretion from human monocytes at 10 μM of test compound,66.2%
"NCc1cccc(CN2CCC[C@@H](Nc3ccc4[nH]ncc4c3)C2)c1 [Compound 1.235, (R)-N-(1-(3-(aminomethyl)benzyl)piperidin-3-yl)-1H-indazol-5-amine]",log10AUC (penh),[1]; 15 μmol/kg intraperitoneal,1.9362
"Cc1ccc(CN2CC[C@@H](Nc3cccc4cnccc34)C2)cc1 [Compound 2.025, (R)-N-(1-(4-methylbenzyl)pyrrolidin-3-yl)isoquinolin-5-amine]","Percentage of carbachol-induced contraction at 1 μM compound, Avg %",rat trachea rings,33.3%
same,"Trachael Ring Contraction, %",rat trachea rings,33%
same,log10AUC (penh),[1]; 15 μmol/kg intraperitoneal,1.9667
"C[C@@H](N)[C@H]1CC[C@H](C(=O)Nc2ccncc2)CC1 [Compound Y-27632, reference compound]","Percentage of carbachol-induced contraction at 1 μM compound, Avg %",rat trachea rings,83.7%
same,"Percentage of carbachol-induced contraction at 10 μM compound, Avg %",rat trachea rings,23.4%
same,IC50,rat trachea rings; relaxation of 1 μM carbachol precontracted rat tracheal rings,4780 nM
same,log10AUC (penh),[1]; 30 μmol/kg oral,2.0135
"NS(=O)(=O)c1cccc(CN2CCC[C@H](Nc3ccc4[nH]ncc4c3)C2)c1 [Compound 1.215, (S)-3-((3-(1H-indazol-5-ylamino)piperidin-1-yl)methyl)benzenesulfonamide]","Percentage of carbachol-induced contraction at 1 μM compound, Avg %",rat trachea rings,40.6%
same,"Trachael Ring Contraction, %",rat trachea rings,41%
same,log10AUC (penh),[1]; 15 μmol/kg intraperitoneal,2.0081
"OCCn1ccc2cc(CN3CC[C@@H](Nc4cccc5cnccc45)C3)ccc21 [Compound 2.066, (R)-2-(5-((3-(isoquinolin-5-ylamino)pyrrolidin-1-yl)methyl)-1H-indol-1-yl)ethanol]","Percent inhibition, ERK1",ERK1; 1 μM test compound,52%
same,"Percent inhibition, ERK1",ERK1; 10 μM test compound,15%
same,airway hyperreactivity,[3],prevention of airway hyperreactivity
same,"Percent inhibition, ERK2",ERK2; 1 μM test compound,50%
same,"Percent inhibition, ERK2",ERK2; 10 μM test compound,12%
